# Data as given in patent US20210293825A1, “METHODS FOR PRECISION THERAPEUTIC TARGETING OF HUMAN CANCER CELL MOTILITY AND KITS THEREOF” (UNITED STATES GOVERNMENT AS REPRESENTED BY THE DEPARTMENT …, priority 2018, published 2021).
# Legend:
# [1] = system: recombinant human protein kinases; assay: Kinex kinase assay system (inhibition of ATP binding); conditions: tested at 1 and 10 μM
# Protocol: Kinase assay system #2. The Kinex™ kinase assay system (Kinexus Proteomics Company). This platform uses recombinant human protein kinases expressed in an insect expression system, thus allowing an avenue for post-translational modification. Also, this platform measures inhibition of ATP binding. This platform putatively measured 200 different kinases, and we tested KBU2046 at 1 and 10 μM. […] There were two important technical issues. First, at 10 μM KBU2046 interfered with the colorimetric-based readout of the assay. […] Conclusions: there was no evidence that KBU2046 inhibits kinase function by competing for ATP binding in the active site.
# [2] = molecular target: T1, HSP90β/CDC37 heterocomplexes (Homo sapiens, UniProt P08238+Q16543); assay: DARTS assay with HSP90β and CDC37 combined; format: binding
# T1 construct: made in house; host or cells: E. coli (Rosetta BL-21 for HSP90B, BL-21 DE-3 for CDC37)
# Protocol: Equimolar amounts of HSP90β and CDC37 protein were pre-incubated with KBU2046, and resultant thermolysin reaction products were detected by silver stain following SDS-PAGE.
# DARTS provides a sensitive measure of ligand-induced changes in protein structure and dynamics by measuring the ability of a ligand to protect its target from protease digestion (Lomenick, B. et al., Proc Natl Acad Sci USA 106, 21984-9 (2009)). […] The intensity of the CDC37 band increased, that of the HSP90β degradation product decreased, and both effects were statistically significant, concentration-dependent and were evident at 10 nM. […] Further, these findings also indicate that KBU2046 is not acting as a classical HSP90 inhibitor.
# Biophysical and Biochemical Binding Assays. Fluorescent thermal shift (Krishna, S. N. et al., PLoS One 8, e81504 (2013)), isothermal titration calorimetry (Chavez, J. D. et al., Mol Cell Proteomics 12, 1451-67 (2013)), and biolayer interferometry assays (Makowska-Grzyska, M. et al., Biochemistry 51, 6148-63 (2012)), were performed using MEK4EE (37-399, S257E, T261E) cloned into pMCSG7 and KRX Competent E. coli cells (Promega Inc.) and full-length HSP90B and CDC37 vectors and Rosetta BL-21 and BL-21 DE-3 competent E. coli cells, respectively. […]
# [3] = molecular target: T2, phosphorylation of HSP90β (Homo sapiens, UniProt P08238+Q16543); assay: HSP90β/CDC37 heterocomplex in vitro kinase assay with SGK3 and MAP3K6; format: biochemical
# T2 construct: MAP3K6: Abnova SGK3: #PV3859; MAP3K6: #P5592; host or cells: E. coli for HSP90β and CDC37
# Protocol: HEK293T cells were transfected with 1 of 420 different protein kinases, treated with 10 μM KBU2046 (N=5 replicates) or vehicle control (N=5) for three days, and LUMIER assays performed. The N=17 kinases that gave significant findings (Student's t-test <0.05) in the same direction in each of two separate experiments are depicted. Each separate treatment and kinase condition in each of two separate experiments was conducted in replicates of N=5. […] FIGS. 6c and 6d show the results of the wound healing assay. PC3 cells were transfected with siRNA targeting RAF1 (si-Raf1) or non-targeting siRNA (si-control), treated with KBU2046 or vehicle as above, and RAF1 protein measured by Western blot (c) and effects upon wound healing measured (d). […] Purified recombinant HSP90β, CDC37, and RAF1 were combined with KBU2046, as indicated, incubated in an in vitro kinase assay for the indicated times, and Western blot for RAF1-Ser^338 phosphorylation performed. FIGS. 6f and 6g show the effect on HSP90β/CDC37 heterocomplex formation and function in vitro. Purified recombinant HSP90β, CDC37, RAF1, SGK3 or MAP3K6 were combined and treated with KBU2046 or vehicle control, as indicated, incubated in an in vitro kinase assay for the indicated times, and Western blot performed, as denoted. Experiments were repeated at separate times at least once, with similar results. […]
# T2 sequence (P08238 2-724): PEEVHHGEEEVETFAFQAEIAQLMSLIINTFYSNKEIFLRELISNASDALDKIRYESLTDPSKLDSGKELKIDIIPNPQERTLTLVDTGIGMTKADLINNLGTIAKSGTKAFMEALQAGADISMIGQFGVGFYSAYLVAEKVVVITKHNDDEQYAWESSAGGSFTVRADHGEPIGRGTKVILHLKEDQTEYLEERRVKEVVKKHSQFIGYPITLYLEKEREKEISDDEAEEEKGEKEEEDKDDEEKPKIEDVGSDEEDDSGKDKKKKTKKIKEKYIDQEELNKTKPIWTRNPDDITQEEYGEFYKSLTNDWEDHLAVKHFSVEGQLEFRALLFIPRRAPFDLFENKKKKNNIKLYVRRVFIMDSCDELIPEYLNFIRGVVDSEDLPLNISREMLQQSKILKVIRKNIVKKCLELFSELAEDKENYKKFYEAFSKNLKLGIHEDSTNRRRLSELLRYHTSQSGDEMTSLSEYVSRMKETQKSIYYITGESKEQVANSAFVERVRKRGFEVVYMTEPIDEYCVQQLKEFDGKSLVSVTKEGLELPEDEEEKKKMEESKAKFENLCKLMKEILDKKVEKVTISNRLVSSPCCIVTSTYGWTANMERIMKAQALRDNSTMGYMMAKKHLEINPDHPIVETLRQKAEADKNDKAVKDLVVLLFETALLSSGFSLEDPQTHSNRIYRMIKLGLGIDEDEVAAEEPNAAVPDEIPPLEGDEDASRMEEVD
# T2 sequence (Q16543 whole entry): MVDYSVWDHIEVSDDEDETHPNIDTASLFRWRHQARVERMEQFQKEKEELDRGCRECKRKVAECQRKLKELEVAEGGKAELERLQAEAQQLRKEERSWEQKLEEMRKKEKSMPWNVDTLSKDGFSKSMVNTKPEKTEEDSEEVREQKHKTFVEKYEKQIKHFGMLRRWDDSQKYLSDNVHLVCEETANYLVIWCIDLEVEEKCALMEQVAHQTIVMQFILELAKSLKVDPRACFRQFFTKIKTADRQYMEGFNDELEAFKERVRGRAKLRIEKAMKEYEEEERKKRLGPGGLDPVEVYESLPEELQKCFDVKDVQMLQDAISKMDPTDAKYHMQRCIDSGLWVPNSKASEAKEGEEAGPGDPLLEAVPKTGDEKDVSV
# T1 sequence (P08238 whole entry): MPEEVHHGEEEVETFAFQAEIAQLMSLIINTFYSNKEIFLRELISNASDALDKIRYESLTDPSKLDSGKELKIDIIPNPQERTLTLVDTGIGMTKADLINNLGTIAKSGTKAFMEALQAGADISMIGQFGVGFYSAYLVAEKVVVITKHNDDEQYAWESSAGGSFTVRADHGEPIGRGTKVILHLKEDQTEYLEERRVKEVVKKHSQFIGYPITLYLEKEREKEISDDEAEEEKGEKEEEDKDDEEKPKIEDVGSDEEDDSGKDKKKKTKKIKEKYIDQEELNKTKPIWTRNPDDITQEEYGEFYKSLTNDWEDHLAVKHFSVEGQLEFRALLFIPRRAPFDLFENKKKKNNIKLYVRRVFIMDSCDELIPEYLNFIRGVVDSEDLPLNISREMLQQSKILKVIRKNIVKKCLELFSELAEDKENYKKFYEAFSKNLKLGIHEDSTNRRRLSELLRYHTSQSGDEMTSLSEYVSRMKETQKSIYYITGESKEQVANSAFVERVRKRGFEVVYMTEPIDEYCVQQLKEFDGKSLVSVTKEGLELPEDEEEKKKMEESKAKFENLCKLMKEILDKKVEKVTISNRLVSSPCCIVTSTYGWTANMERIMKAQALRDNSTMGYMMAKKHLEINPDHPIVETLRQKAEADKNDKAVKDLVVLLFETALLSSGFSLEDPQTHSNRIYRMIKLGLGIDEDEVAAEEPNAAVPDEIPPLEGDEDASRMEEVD
# T1 sequence (Q16543 whole entry): as the sequence (Q16543 whole entry) above
compound,measurement,setting,value
"O=C1c2ccccc2OCC1c1ccc(F)cc1 (racemic) [KBU2046, (±)-3(4-fluorophenyl)chroman-4-one]",inhibition of ATP binding,[1],completely negative
same,concentration at which effects on CDC37 and HSP90β bands were evident,[2]; concentration-dependent,10 nM
same,protection from thermolysin digestion,[2]; equimolar HSP90β and CDC37,protected both proteins from digestion
same,SGK3-mediated phosphorylation of HSP90β,[3]; MAP3K6 added,also decreases in the presence of KBU2046
same,SGK3-mediated phosphorylation of HSP90β,[3]; SGK3 present,phosphorylation was further increased
